Assay results published in patent US12709610B2, “Preparation method for hepatitis B virus nucleocapsid inhibitor” (Shanghai Zhimeng Biopharma, Inc., priority 2021, dated 2026).

Assay: Ames assay (genotoxicity)
Assay type: cell-based
Details: synthetic intermediates of the last three steps

Row | SMILES | Ames assay result
1 | NC(=O)Nc1ccc(CCN2C(=O)CO[C@@H]2c2cn(-c3ccc(Br)cc3)nc2-c2ccc(F)cc2)cc1I [Compound 9] | negative
2 | NC(=O)Nc1ccc(CCN2C(=O)CO[C@@H]2c2cn(-c3ccc(Br)cc3)nc2-c2ccc(F)cc2)cc1 [Compound 17] | negative
